Results taken from patent US20030162777A1, “Novel N-acylated heterocycles” (Recordati S.A., priority 2001, published 2003).

Key:
5-HT1A receptors = target: T1, 5-HT1A receptors (Rattus norvegicus, UniProt P19327); test: Inhibition of stereotypy (rhythmic forepaw treading) induced by 8-OH-DPAT in rats (post-synaptic antagonism); assay type: in vivo; conditions: 1 mg/kg p.o.; for inhibition at 1 mg/kg: rat
T1 construct: from tissue; host or cells: whole animal: male Sprague-Dawley rats (post-synaptic 5-HT1A receptors)
T1 sequence (P19327 1-422): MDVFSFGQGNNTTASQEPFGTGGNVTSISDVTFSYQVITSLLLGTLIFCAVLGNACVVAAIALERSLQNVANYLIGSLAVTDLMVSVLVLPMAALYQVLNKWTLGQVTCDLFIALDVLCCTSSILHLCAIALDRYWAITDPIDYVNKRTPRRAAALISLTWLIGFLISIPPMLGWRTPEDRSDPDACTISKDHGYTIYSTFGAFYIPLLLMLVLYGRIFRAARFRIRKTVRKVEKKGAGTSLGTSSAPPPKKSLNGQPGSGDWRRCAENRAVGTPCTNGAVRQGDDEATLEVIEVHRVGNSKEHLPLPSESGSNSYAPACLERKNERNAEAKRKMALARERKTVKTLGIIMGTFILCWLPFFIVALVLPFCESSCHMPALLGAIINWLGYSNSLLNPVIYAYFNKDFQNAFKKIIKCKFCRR
Method: The inhibitory effect of 5-HT1A-receptor antagonists on stereotyped forepaw treading induced in rats by subcutaneous injection of 8-OH-DPAT was evaluated by the method of Tricklebank (Tricklebanket al., Eur. J. Pharmacol., 117: 15, 1985) with minor modifications as described below.
Male Sprague-Dawley rats [Crl: CD° (SD) BR] weighing 150-175 g from Charles River Italia were used. The animals were housed with free access to food and water and maintained on a forced 12-hour-light/12-hour-dark cycle at 22-24° C. of temperature. On the day of the experiment, the rats were placed singly in clear plastic containers, 10-15 minutes before administration of the vehicle or compounds to be tested. For evaluation of antagonistic activity after oral administration, the compounds were administered 0.5, 1 and 4 hours before induction of stereotypy by 8-OH-DPAT (1 mg/kg subcutaneously). Observation sessions lasted 30 seconds and began 3 minutes after 8-OH-DPAT treatment and were repeated every 3 minutes over a period of 15 minutes.
The appearance of the symptom induced by postsynaptic stimulation of 5-HT1A receptors was noted, and the intensity was scored using an intensity scale in which: 0=absent, 1=equivocal, 2=present and 3=intense. Behavioural scores for treated rats were accumulated throughout the observation time (5 observation periods) and expressed as mean values of 4 rats/dose. Change in mean values of treated animals in comparison with control (vehicle) group, expressed as per-cent inhibition, was used in order to quantify the antagonistic activity.

conscious rats = test: Effect on cystometric parameters in conscious rats after oral administration; assay type: in vivo, rat; conditions: 3 mg/kg p.o., 1-5 h after treatment, versus vehicle
Method: Male Sprague-Dawley rats [Crl: CD° (SD) BR] of 300-400 g supplied by Charles River Italia were used. The animals were housed with free access to food and water and maintained on a forced 12-hour-light/12-hour-dark cycle at 22-24° C. of temperature, except during the experiment. To quantify urodynamic parameters in conscious rats, cystometrographic studies were performed according to the procedure previously reported (Guarneri et al., Pharmacol. Res. 24: 175, 1991).
Briefly, the rats were anaesthetised by intraperitoneal administration of 3 ml/kg of Equithensin solution (pentobarbital 30 mg/kg and chloral hydrate 125 mg/kg) and placed in a supine position. An approximately-10-mm-long midline incision was made in the shaved and cleaned abdominal wall. The urinary bladder was gently freed from adhering tissues, emptied and then cannulated via an incision in the bladder body, using a polyethylene cannula (0.58-mm internal diameter, 0.96-mm external diameter) which was permanently sutured with silk thread. The cannula was exteriorised through a subcutaneous tunnel in the retroscapular area, where it was connected to a plastic adapter in order to avoid the risk of removal by the animal. For drug testing, the rats were utilised one day after implantation.
On the day of the experiment, the rats were placed in modified Bollman cages, i.e. restraining cages that were large enough to permit the rats to adopt a normal crouched posture, but narrow enough to prevent turning around. […] The intraluminal-pressure signal during infusion of saline into the bladder was continuously recorded on a polygraph (Rectigraph-8K San-ei with BM614/2 amplifier from Biomedica Mangoni) and, from the cystometrogram, two urodynamic parameters were evaluated: bladder volume capacity (BVC) and micturition pressure (MP). […] Basal BVC and MP values were evaluated as mean of the values observed in the cystometrograms recorded in an initial period of 30-60 minutes. […] The bladder infusion restarted and changes in BVC and MP were evaluated from the mean values obtained in the cystometrograms observed during 1, 2, 3, 4 and 5 hours after treatment. […]
All data were expressed as mean±standard error. Time-course data were analysed by S.A.S./STAT software, version 6.12. The difference between vehicle and active-treatment effect was evaluated by: General Linear Model Procedure—Repeated Measures Analysis of Variance: Univariate test of Hypotheses for within Subject Effects—Analysis of Variance of Contrast Variables. […]

O=C(C1CCCCC1)N1c2ccccc2CCC1CN1CCN(c2cccc3[nH]ccc23)CC1 (racemic) [Example 1, (±)1-(1-cyclohexanecarbonyl-1,2,3,4-tetrahydroquinoline-2-ylmethyl)-4-(4-indolyl)piperazine]
post-synaptic 5-HT1A-receptor antagonist activity (in words) (5-HT1A receptors; rats): significant and long-lasting post-synaptic 5-HT1A-receptor antagonist activity | inhibition at 1 mg/kg (5-HT1A receptors; 0.5 h before 8-OH-DPAT (1 mg/kg s.c.)): 91% | inhibition at 1 mg/kg (5-HT1A receptors; 1 h before 8-OH-DPAT (1 mg/kg s.c.)): 91% | inhibition at 1 mg/kg (5-HT1A receptors; 4 h before 8-OH-DPAT (1 mg/kg s.c.)): 96% | effect on bladder volume capacity (BVC) (conscious rats): effective in increasing the bladder volume capacity | effect on micturition pressure (MP) (conscious rats): without significant effects
